Drawing on PubChem BioAssay AID588639 (Sanford-Burnham Center for Chemical Genomics, 2011), this text covers IC50 for five compounds.

Structures are written as SMILES. Activity calls are given as the source filed them. How the calls were made is not given here. Some results are limits rather than exact numbers.

For orientation: IC50 means the concentration needed to halve the response being measured.

In this assay the target is Alkaline phosphatase, tissue-nonspecific isozyme (Homo sapiens) (UniProt P05186). The experiment in a line: inhibition of tissue-nonspecific alkaline phosphatase – biochemical, set 2, selectivity assay for mouse IAP inhibitor project, SAR follow-up (AID 588639). Particulars: purified human TNAP enzyme activity, counter-screen for mouse IAP. A general note: A counterscreen serves to expose hits that act by an unwanted route or on another target.
Sequence of Alkaline phosphatase, tissue-nonspecific isozyme (Homo sapiens) (P05186 whole entry, looked up): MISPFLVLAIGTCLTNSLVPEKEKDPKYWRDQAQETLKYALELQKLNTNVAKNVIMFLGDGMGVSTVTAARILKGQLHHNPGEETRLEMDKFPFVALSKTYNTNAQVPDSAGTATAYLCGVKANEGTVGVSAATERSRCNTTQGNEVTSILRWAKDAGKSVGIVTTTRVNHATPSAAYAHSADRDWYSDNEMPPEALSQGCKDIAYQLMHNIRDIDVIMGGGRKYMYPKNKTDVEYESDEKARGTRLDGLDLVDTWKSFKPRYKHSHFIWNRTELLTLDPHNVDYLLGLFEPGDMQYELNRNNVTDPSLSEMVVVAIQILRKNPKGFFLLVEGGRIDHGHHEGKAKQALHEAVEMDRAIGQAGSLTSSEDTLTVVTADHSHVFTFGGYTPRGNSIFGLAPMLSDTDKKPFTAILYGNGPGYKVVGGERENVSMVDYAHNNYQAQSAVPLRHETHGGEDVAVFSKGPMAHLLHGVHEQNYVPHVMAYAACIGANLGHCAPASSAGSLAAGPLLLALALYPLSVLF
As to `O=C(CCNS(=O)(=O)c1ccc2[nH]c(=O)oc2c1)NCc1ccccc1Cl`, the IC50 is > 100 µM (inactive).

With `COc1cccc(CNS(=O)(=O)c2ccc3[nH]c(=O)oc3c2)c1`, the IC50 is > 100 µM (inactive).

Turning to `N#Cc1cccc(NS(=O)(=O)c2ccc3[nH]c(=O)oc3c2)c1`, the IC50 is > 100 µM (inactive).

Take `O=C(CCS(=O)(=O)Nc1ccc2[nH]c(=O)oc2c1)NCc1ccccc1Cl`: the IC50 is > 100 µM (inactive).

`O=C(N/N=C/c1c(F)cccc1Cl)c1ccc(O)cc1O`: the IC50 was > 100 µM (inactive).
